Experimental data published in US8362008B2 (The University Of Edinburgh, priority 2007, dated 2013).
Where a name gives a salt, the structure may show the parent alone.

Target: T1, human 11β-HSD1 enzyme (Homo sapiens, UniProt P28845)
T1 construct: stably transfected with a construct containing the full-length gene coding for the human 11β-HSD1 enzyme; expressed in transfected cells; host or cells: HEK293 (HEK293/11β-HSD1 cells)
Assay: Cellular in vitro 11β-HSD1 enzyme inhibition assay (SPA, HEK293/11β-HSD1 cells)
Format: cell-based
Procedure: Cellular In Vitro 11β-HSD1 Enzyme Inhibition Assay
Compounds were assessed by a Scintillation Proximity Assay (SPA) performed according to the following protocol:
HEK293 cells were stably transfected with a construct containing the full-length gene coding for the human 11β-HSD1 enzyme to create HEK293/11β-HSD1 cells. Cells were routinely cultured in DMEM containing 10% calf foetal serum, 1% glutamine, and 1% penicillin and streptomycin. Prior to assay, cells were plated at 2×10^4 cells/well in 96-well poly-D-Lys coated flat-bottomed microplates and incubated in 5% CO2, 95% O2 at 37° C. for 24 hours. The media in each well was removed immediately before assay.
Compounds to be tested were dissolved in DMSO at 10 mM and serially diluted into water containing 10% DMSO. Diluted compounds at a volume of 10 μL were added to wells of a 96-well V-bottomed microplate. […] This solution (100 μL/well) was transferred to the plate containing the cells. The plate was then incubated in 5% CO2, 95% O2 at 37° C. for 2 hours.
Following this incubation, 50 μL of the assay solution was transferred to each well of a 96-well scintillation microplate. A mixture consisting of anti-mouse YSi SPA beads, pre-mixed with anti-cortisol antibody in assay buffer (50 mM Tris.HCl, pH 7.0; 300 mM NaCl; 1 mM EDTA, 5% glycerol) was prepared and 50 μL added to each well of the scintillation microplate. An adhesive strip was applied to the microplate and the plate gently shaken for at least 2 hours at room temperature, and then spun briefly on a low speed centrifuge. The plate was read on a scintillation counter suitable for 96-well microplates. For the calculation of percentage inhibition, a series of wells were added to the plate that represented the assay maximum and the assay minimum: one set that contained substrate without cells (mimimum) and another set that contained substrate and cells without any compound (maximum).
The calculation of median inhibitory concentration (IC50) values for the compounds was performed using GraphPad Prism® software. Dose-response curves for each compound were plotted as fractional inhibition and data fitted to the four parameter logistic equation.

[1] = HEK293, more than 1000 nM (1.0 μM) and less than or equal to 30 μM
[2] = HEK293, less than or equal to 1000 nM (1 μM)

T1 sequence (P28845 whole entry): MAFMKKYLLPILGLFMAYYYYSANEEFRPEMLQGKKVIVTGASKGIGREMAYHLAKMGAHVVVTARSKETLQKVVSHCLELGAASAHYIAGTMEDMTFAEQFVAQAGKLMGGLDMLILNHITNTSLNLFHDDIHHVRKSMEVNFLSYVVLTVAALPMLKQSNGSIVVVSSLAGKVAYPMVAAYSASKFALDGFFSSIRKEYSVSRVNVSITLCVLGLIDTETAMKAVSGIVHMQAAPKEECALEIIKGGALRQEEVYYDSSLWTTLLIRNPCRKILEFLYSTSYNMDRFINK

Compound	IC50 [1]	IC50 [2]
O=C(c1csc(C2CCOCC2)c1)N1CCC2CCCCC2C1 (stereo not shown) [CC-029]	1000 to 30000 nM	–
O=C(c1csc(C2CCNCC2)c1)N1CCCC2CCCCC21 (single isomer, unassigned) [CC-045, trans-(Octahydro-quinolin-1-yl)-(5-piperidin-4-yl-thiophen-3-yl)-methanone]	1000 to 30000 nM	–
CCc1cc(C(=O)N2C3CCCC2CC3)cs1 [AA-016]	–	≤ 1000 nM
O=C(OCc1ccccc1)N1CCC(c2cc(C(=O)N3CCCC4CCCCC43)cs2)CC1 (stereo not shown) [CC-032]	1000 to 30000 nM	–
CCc1cc(C(=O)N2CCCCCC2)c(Br)s1 [AA-005]	–	≤ 1000 nM
O=C(c1csc(COc2ccccc2)c1)N1CCCCC1 [BB-001]	1000 to 30000 nM	–
O=C(c1cc(C2CCOCC2)sc1Cl)N1CCCCCC1 [CC-006, Azepan-1-yl-[2-chloro-5-(tetrahydro-pyran-4-yl)-thiophen-3-yl]methanone]	–	≤ 1000 nM
CC1(C)CC2CC(C)(CN2C(=O)c2csc(CC(F)(F)F)c2)C1 (stereo not shown) [AA-018]	–	≤ 1000 nM
O=C(c1csc(C2CCNCC2)c1)N1CCCCC1c1ccccn1 (stereo not shown) [CC-012]	1000 to 30000 nM	–
CCc1cc(C(=O)N2CCC3CCCCC3C2)cs1 (stereo not shown) [AA-010]	1000 to 30000 nM	–
CC1(C)CCCN(C(=O)c2cc(C3CCOCC3)sc2Cl)C1 [CC-005]	–	≤ 1000 nM
CC1(C)CCCCN(C(=O)c2csc(C3CCOCC3)c2)C1 [CC-022]	–	≤ 1000 nM
CC1(C)CCCN(C(=O)c2csc(C3CCNCC3)c2)C1 [CC-013]	1000 to 30000 nM	–
O=C(OCc1ccccc1)N1CCC(c2cc(C(=O)N3CCCCCC3)c(Cl)s2)CC1 [CC-009, 4-[4-(Azepane-1-carbonyl)-5-chloro-thiophen-2-yl]-piperidine-1-carboxylic acid benzyl ester]	1000 to 30000 nM	–
CC(=O)N1CC=C(c2cc(C(=O)N3CCCCCC3)cs2)CC1 [CC-016, 1-{4-[4-(Azepane-1-carbonyl)-thiophen-2-yl]-3,6-dihydro-2H-pyridin-1-yl}-ethanone]	1000 to 30000 nM	–
CC1(C)CCN(C(=O)c2csc(C3CCOCC3)c2)CC1 [CC-011]	1000 to 30000 nM	–

Compound	IC50 [1]	IC50 [2]
CCCCCc1cc(C(=O)N2CC3(C)CC2CC(C)(C)C3)cs1 (stereo not shown) [AA-017]	–	≤ 1000 nM
CCc1cc(C(=O)N2CCC(c3ccccc3)C2)c(Cl)s1 (stereo not shown) [AA-008]	1000 to 30000 nM	–
CCc1cc(C(=O)N2CCCCC2)c(C#N)s1 [AA-003, 5-Ethyl-3-(piperidine-1-carbonyl)-thiophene-2-carbonitrile]	1000 to 30000 nM	–
CCc1cc(C(=O)N2CCCC(F)(F)CC2)cs1 [AA-020]	1000 to 30000 nM	–
CC(=O)N1CCC(c2cc(C(=O)N3CCCCC(C)(C)C3)cs2)CC1 [CC-026]	–	≤ 1000 nM
O=C(c1csc(C2CCNCC2)c1)N1CCN2CCCCC2C1 (stereo not shown) [CC-042]	1000 to 30000 nM	–
O=C(c1csc(C2CCOCC2)c1)N1CCCC(F)(F)CC1	1000 to 30000 nM	–
CCc1cc(C(=O)N2CCCCC2)c(Br)s1 [AA-002, (2-Bromo-5-ethyl-thiophen-3-yl)-piperidin-1-yl-methanone]	–	≤ 1000 nM
CCc1cc(C(=O)N2CCCCCC2)c(C#N)s1 [AA-006]	1000 to 30000 nM	–
CC1(C)CC2CC(C)(CN2C(=O)c2csc(C3=CCNCC3)c2)C1 (stereo not shown) [CC-074]	–	≤ 1000 nM
CC1(C)CCCCN(C(=O)c2csc(C3CCNCC3)c2)C1 [CC-024]	1000 to 30000 nM	–
COCc1cc(C(=O)N2CC3(C)CC2CC(C)(C)C3)cs1 (stereo not shown) [BB-006]	–	≤ 1000 nM
O=C(c1cc(C2CCOCC2)sc1Cl)N1CCC2CCCCC2C1 (stereo not shown) [CC-031]	–	≤ 1000 nM
CC(=O)N1CCC(c2cc(C(=O)N3CCCC4CCCCC43)cs2)CC1 (stereo not shown)	–	≤ 1000 nM
O=C(OCc1ccccc1)N1CCC(c2cc(C(=O)N3CCCCCC3)cs2)CC1 [CC-007, 4-[4-(Azepane-1-carbonyl)-thiophen-2-yl]-piperidine-1-carboxylic acid benzyl ester]	–	≤ 1000 nM
N#CCc1cc(C(=O)N2CCC[C@@H]3CCCC[C@@H]32)cs1 (relative stereo) [AA-022, cis-[4-(Octahydro-quinoline-1-carbonyl)-thiophen-2-yl]-acetonitrile]	–	≤ 1000 nM

More lines, now with the values ahead:

IC50 [1]	IC50 [2]	Compound
1000 to 30000 nM	–	O=C(c1csc(C2CCN(c3nc4ccccc4o3)CC2)c1)N1CCCC2CCCCC21 (stereo not shown) [CC-129]
1000 to 30000 nM	–	CC1(C)CC2CC(C)(CN2C(=O)c2csc(C3CCNCC3)c2)C1 (single isomer, unassigned) [CC-076, (5-Piperidin-4-yl-thiophen-3-yl)-(1,3,3-trimethyl-6-aza-bicyclo[3.2.1]oct-6-yl)-methanone]
1000 to 30000 nM	–	O=C(c1csc(C2CCN(CCO)CC2)c1)N1CCC[C@@H]2CCCC[C@@H]21 (racemic) [CC-088, cis-1-(2-Hydroxy-ethyl)-4-[4-(octahydro-quinoline-1-carbonyl)-thiophen-2-yl]-piperidinium formate]
–	≤ 1000 nM	NC(=O)CN1CCC(c2cc(C(=O)N3CCCC4CCCCC43)cs2)CC1 (stereo not shown) [CC-108]
–	≤ 1000 nM	Cn1ccnc1CN1CCC(c2cc(C(=O)N3CCCC4CCCCC43)cs2)CC1 (stereo not shown) [CC-154]
–	≤ 1000 nM	O=C(C1CC1)N1CCC(c2cc(C(=O)N3CCCC4CCCCC43)cs2)CC1 (stereo not shown) [CC-099]
1000 to 30000 nM	–	CC1(C)CCCN(C(=O)c2csc(C3CCN(CC(N)=O)CC3)c2)CC1 [CC-139]
1000 to 30000 nM	–	O=C(CCN1CCCCC1)N1CCC(c2cc(C(=O)N3CCC[C@@H]4CCCC[C@@H]43)cs2)CC1 (relative stereo) [CC-061, cis-1-{4-[4-(Octahydro-quinoline-1-carbonyl)-thiophen-2-yl]-piperidin-1-yl}-3-piperidin-1-yl-propan-1-one]
1000 to 30000 nM	–	COC(=O)N1CCC(c2cc(C(=O)N3CCCC(C)(C)CC3)cs2)CC1 [CC-094]
–	≤ 1000 nM	O=C(NCc1ccccn1)N1CCC(c2cc(C(=O)N3CCCC4CCCCC43)cs2)CC1 (stereo not shown) [CC-166]
–	≤ 1000 nM	O=C(CCc1c[nH]cn1)N1CCC(c2cc(C(=O)N3CCCC4CCCCC43)cs2)CC1 (stereo not shown) [CC-151]
–	≤ 1000 nM	COCCNC(=O)N1CCC(c2cc(C(=O)N3CCCC4CCCCC43)cs2)CC1 (stereo not shown) [CC-164]
1000 to 30000 nM	–	O=C(c1csc(C2CCCCC2)c1)N1CCCC2(CCCCC2)C1 [DD-006]
1000 to 30000 nM	–	CC(C)OC(=O)N1CCC(c2cc(C(=O)N3CCCC4CCCCC43)cs2)CC1 (stereo not shown) [CC-067]
1000 to 30000 nM	–	O=C(c1csc(C2CCN(S(=O)(=O)C3CC3)CC2)c1)N1CCCC2CCCCC21 (stereo not shown) [CC-093]
1000 to 30000 nM	–	O=C(c1csc(C2CCN(c3ncccn3)CC2)c1)N1CCC[C@@H]2CCCC[C@@H]21 (relative stereo) [CC-121, cis-(Octahydro-quinolin-1-yl)-[5-(1-pyrimidin-2-yl-piperidin-4-yl)-thiophen-3-yl]-methanone]
–	≤ 1000 nM	O=C(c1csc(C2CCOCC2)c1)N1CCCC2(CCCCC2)C1 [CC-077]
1000 to 30000 nM	–	O=C1CNCCN1c1cc(C(=O)N2CCC[C@@H]3CCCC[C@@H]32)cs1 (relative stereo) [CC-048, cis-1-[4-(Octahydro-quinoline-1-carbonyl)-thiophen-2-yl]-piperazin-2-one]
1000 to 30000 nM	–	O=C(c1csc(C2CCNCC2)c1)N1CCCC2(CCCCC2)C1 [CC-079]
–	≤ 1000 nM	CC(C)C(=O)N1CCC(c2cc(C(=O)N3CCCC4CCCCC43)cs2)CC1 (stereo not shown) [CC-081]
–	≤ 1000 nM	CC(=O)N1CCC(c2cc(C(=O)N3CCC[C@@H]4CCCC[C@@H]43)cs2)CC1 (single isomer, unassigned) [CC-114, cis-1-{4-[4-(Octahydro-quinoline-1-carbonyl)-thiophen-2-yl]-piperidin-1-yl}-ethanone]
–	≤ 1000 nM	COCC(=O)N1CCC(c2cc(C(=O)N3CCCC4CCCCC43)cs2)CC1 (stereo not shown) [CC-083]
1000 to 30000 nM	–	CN(C)CCNC(=O)N1CCC(c2cc(C(=O)N3CCCC4CCCCC43)cs2)CC1 (stereo not shown) [CC-162]
–	≤ 1000 nM	CC1(C)CC2CC(C)(CN2C(=O)c2csc(C3CCNCC3)c2)C1 (single isomer, unassigned) [CC-075, (5-Piperidin-4-yl-thiophen-3-yl)-(1,3,3-trimethyl-6-aza-bicyclo[3.2.1]oct-6-yl)-methanone]
1000 to 30000 nM	–	CC1(C)CC2CC(C)(CN2C(=O)c2csc(C3CCN(C(=O)OCc4ccccc4)CC3)c2)C1 (stereo not shown) [CC-071]
–	≤ 1000 nM	O=C(CN1CCOCC1)N1CCC(c2cc(C(=O)N3CCCC4CCCCC43)cs2)CC1 (stereo not shown) [CC-059]
–	≤ 1000 nM	O=C(NCCO)N1CCC(c2cc(C(=O)N3CCCC4CCCCC43)cs2)CC1 (stereo not shown) [CC-173]
1000 to 30000 nM	–	O=C(CCN1CCCCC1)N1CCC(c2cc(C(=O)N3CCCC4CCCCC43)cs2)CC1 (stereo not shown) [CC-062]
–	≤ 1000 nM	O=C(NCCO)N1CCC(c2cc(C(=O)N3CCC[C@@H]4CCCC[C@@H]43)cs2)CC1 (racemic) [CC-157, cis-4-[4-(Octahydro-quinoline-1-carbonyl)-thiophen-2-yl]-piperidine-1-carboxylic acid(2-hydroxy-ethyl)-amide]
